# Reference: patent publication US5807729A, “Metalloprotease having increased activity” (Novo Nordisk A/S, priority 1995, dated 1998)
# Like-named read-outs stand apart in the source and are kept apart here. Square brackets hold non-standard residues; d marks the D form. Peptide text beside a SMILES is read from it. pGlu = O=C1CC[C@@H](C(=O)O)N1
# T1: p45 metalloprotease from Fusarium oxysporum (Fusarium oxysporum)
# T1 chain: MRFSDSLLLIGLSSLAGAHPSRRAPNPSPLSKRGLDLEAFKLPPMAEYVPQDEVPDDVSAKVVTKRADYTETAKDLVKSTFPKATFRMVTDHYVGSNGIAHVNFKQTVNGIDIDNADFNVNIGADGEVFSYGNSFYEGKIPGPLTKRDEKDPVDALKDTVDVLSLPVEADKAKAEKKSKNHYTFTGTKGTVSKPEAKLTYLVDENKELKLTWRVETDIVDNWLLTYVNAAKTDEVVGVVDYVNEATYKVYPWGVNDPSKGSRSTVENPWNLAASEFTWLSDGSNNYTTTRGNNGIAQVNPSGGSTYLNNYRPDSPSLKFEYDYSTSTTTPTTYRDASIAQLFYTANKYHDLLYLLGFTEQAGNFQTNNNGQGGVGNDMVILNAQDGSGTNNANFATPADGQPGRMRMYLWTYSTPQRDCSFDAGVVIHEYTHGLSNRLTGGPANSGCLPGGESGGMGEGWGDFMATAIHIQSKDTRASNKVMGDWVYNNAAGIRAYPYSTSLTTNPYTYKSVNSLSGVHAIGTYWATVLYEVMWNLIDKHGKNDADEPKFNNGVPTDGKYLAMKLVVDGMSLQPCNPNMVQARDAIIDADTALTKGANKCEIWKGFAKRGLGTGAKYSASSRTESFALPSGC
# B1: trypsin-like Fusarium oxysporum protease (enzyme)
# chain: IVGGTSASAGDFPFIVSISRNGGPWCGGSLLNANTVLTAAHCVSGYAQSGFQIRAGSLSRTSGGITSSLSSVRVHPSYSGNNNDLAILKLSTSIPSGGNIGYARLAASGSDPVAGSSATVAGWGATSEGGSSTPVNLLKVTVPIVSRATCRAQYGTSAITNQMFCAGVSSGGKDSCQGDSGGPIVDSSNTLIGAVSWGNGCARPNYSGVYASVGALRSFIDTYA
# B2: synthetic pentapeptide pyroGlu-Glu-Ile-Pro-Asn-COOH (peptide)
# peptide: [pGlu]EIPN-OH
# SMILES: CC[C@H](C)[C@H](NC(=O)[C@H](CCC(=O)O)NC(=O)[C@@H]1CCC(=O)N1)C(=O)N1CCC[C@H]1C(=O)N[C@@H](CC(N)=O)C(=O)O
# Experiments:
# [1] = target: T2, trypsin-like Fusarium oxysporum protease (Fusarium oxysporum, UniProt P35049); experiment: Effect of 1,10-phenanthroline on tryptic activity (L-BAPNA); assay type: biochemical; settings: 1,10-phenanthroline 1 mM
# T2 construct: the metalloprotease cleaves recombinant pro-trypsin-like Fusarium oxysporum protease disclosed, supra to yield the active tryptic protease; made in house; host or cells: Aspergillus oryzae (IFO 4177), plasmid pSX183
# Method: (§1) Metalloprotease activity is measured as released trypsin activity from pro-trypsin-like Fusarium oxysporum protease deposited at the Deutsche Sammlung von Mikroorganismen, Gottingen, Germany under the number DSM 2672, after a 30-60 min pre-incubation at 25° C. in 0.1M Tris, 2 mM CaCl2, pH 7 (at lower pH, 100 mM borate, 10 mM DMG, 2 mM CaCl2 is used).
# (§2) However, when combined the metalloprotease cleaves recombinant pro-trypsin-like Fusarium oxysporum protease disclosed, supra to yield the active tryptic protease. Metalloprotease activity is halted upon the addition of 1 mM 1,10-phenanthroline (Table 1).
# [2] = test system: Fusarium oxysporum metalloprotease; experiment: Inhibition of Fusarium metalloprotease with 1,10-phenanthroline / EDTA and reactivation with Zn2+; assay type: biochemical; settings: inhibitor 1 mM
# Method: as §1
# (§3) Metalloproteases contain a catalytic zinc metal center which participates in the hydrolysis of the peptide backbone. The active zinc center differentiates these proteases from calpains whose activities are dependent upon the presence of calcium. Confirmation of a protease as a metallo-protease is loss of proteolytic activity accomplished by removal of the zinc center with 1,10-phenanthroline (1 mM) followed by titration with Zn^2+ (0.1-100 μM) to restore full activity.
# as §2
# [3] = test system: Bacillus stearothermophilus thermolysin; experiment: Inhibitor analysis of B.s. thermolysin; assay type: biochemical; settings: for Ki: read-out: Inhibition Constant (Ki), B.s. Thermolysin
# Method: (§4) Other metalloprotease inhibitors are utilized to further differentiate the p45 metalloprotease from the Bacillus thermolysins. Inhibition constants for 1,10-phenanthroline, phosphoramidon, and CdCl2 are determined to be 130 uM, 1 uM, and 67 uM against the p45 Metalloprotease (Table 3). Inhibition constants for 1,10-phenanthroline, phosphoramidon, and CdCl2 are 85 uM, 26 uM, and 2 uM against the Bacillus stearothermophilus thermolysin. […] It is of interest to note that phophoramidon is an effective inhibitor of many bacterial metallo-endopeptidases but few of mammalian origin. Also, it is interesting that CdCl2 is found to be such an effective inhibitor of metalloproteases. No evidence of CdCl2 inhibition of metalloproteases has been found in the literature.
# [4] = target: T3, p45 Metalloprotease (Fusarium oxysporum, UniProt M1UZ70); experiment: Inhibitor analysis of the p45 metalloprotease; assay type: biochemical; parameters: precursor 632 aa (18 signal, 226 pro); native or A. oryzae-expressed with same N-terminus
# Method: as §4
# [5] = target: T3, p45 Metalloprotease; experiment: Influence of heavy metal additions on p45 metalloprotease activity (FTC-casein); assay type: biochemical; parameters: precursor 632 aa (18 signal, 226 pro); native or A. oryzae-expressed with same N-terminus; settings: CoCl2 0-4 mM, p45 0.9 ug
# Method: Samples are incubated at room temperature for 30 minutes.
# It is interesting that substoichiometric levels of Zn are found after metal analysis (ICP) of the p45 metalloprotease. It appears that zinc levels are only 5% of that expected based on the level of p45 metalloprotease in the sample. No other heavy metal (i.e. Cd, Cr, Co, Cu, Mo, Ni, Li, […], Fe, Mn, As, Pb, or Se) is present in the p45 maturase sample.
# [6] = target: trypsin-like F. oxysporum protease (Fusarium oxysporum, UniProt P35049); settings: 2M NaCl; FIG. 11
# [7] = test system: bacterial thermolysins; settings: 1M NaCl
# Method: FTC-casein (20 microliters, 0.5% w/w in 50 mM Tris-Cl, pH 7.2), NaCl (0-2M) in trypsin-like F. oxysporum protease sample buffer, and either trypsin-like F. oxysporum protease (10 microliters, 1.8 ug) or p45 metalloprotease (10 microliters, 0.33 ug) are added to trypsin-like F. oxysporum protease sample buffer to a total volume of 50 microliters. Samples are incubated at room temperature for 30 minutes. At the end of the incubation, 150 microliters of 5% (w/v) trichloroacetic acid is added and the samples are allowed to precipitate for 60 minutes at 4° C. Samples are subsequently centrifuged (14,000 rpm, 5 minutes) and 30 microliters of supernatant are added to 3 ml of 0.5M sodium borate, pH 9.
# The fluorescence of the samples is measured (Perkin-Elmer fluorimeter) using a 2.5 nm slit width, excitation at 490 nm and emission detected at 525 nm.
# [8] = target: T3, p45 Metalloprotease; settings: 1M NaCl; FIG. 11
# [9] = target: neutral metalloprotease from Bacillus stearothermophilus (Bacillus stearothermophilus); experiment: enzyme inhibition, kinetic analysis of B.s. thermolysin activity
# [10] = target: T3, p45 Metalloprotease; experiment: Effect of the pentapeptide on processing of pro-trypsin-like protease by p45; assay type: biochemical; parameters: precursor 632 aa (18 signal, 226 pro); native or A. oryzae-expressed with same N-terminus; settings: 45-minute pre-incubation at room temperature
# Method: After a 45-minute pre-incubation at room temperature with gentle shaking, the mixtures are diluted 500-fold and assayed for trypsin-like F. oxysporum protease activity.
# [11] = target: FTC-labeled casein; settings: scale: fold
# [12] = test system: FTC-labeled casein; experiment: pH profile, FTC-casein hydrolysis; assay type: biochemical
# Method: Purified p45 metalloprotease (10 microliters, 0.005 mg/ml) is added to 30 microliters of Universal pH buffer (pH 5-11.5), and 20 microliters of FTC-labeled casein are incubated at 37° C. for 1-hour. 150 microliters of 5% TCA is added to acidify and precipitate casein (1-hour at room temperature). […] Samples are then analyzed on the fluorimeter (slit width=2.5 nm; excitation freq.=490 nm; emission freq.=525 nm; integration time=2 sec).
# [13] = test system: pro-trypsin-like Fusarium oxysporum protease; experiment: Proteolytic enzyme assay: tryptic activity released from pro-trypsin-like protease, L-BAPNA, 405 nm; assay type: biochemical
# Method: as §1, §3, §2
# [14] = target: T1, p45 metalloprotease from Fusarium …; experiment: enzyme inhibition, kinetic analysis of p45 activity
molecule,measurement,setting,value
"c1cnc2c(c1)ccc1cccnc12 [1,10-phenanthroline]",inhibition of trypsin-like protease,[1],not inhibited
same,metalloprotease activity upon addition of the inhibitor,[2],halted
same,"type of inhibition, B.s. Thermolysin",[3]; kinetic analysis,Noncompetitive
same,Ki,[3],85 µM
same,Ki,[4],130 µM
same,"type of inhibition, p45 Maturase",[4]; kinetic analysis,Noncompetitive
[Cl-].[Cl-].[Co+2] [CoCl2],enhancement of p45 metalloprotease activity,[5],no enhanced activity
[Cl-].[Na+] [NaCl],inhibition of trypsin-like F. oxysporum protease activity,[6],25%
same,inhibition of bacterial thermolysins,[7],38%
same,inhibition of p45 metalloprotease activity,[8],85%
synthetic pentapeptide pyroGlu-Glu-Ile-Pro-Asn-COOH,Ki,[9],> 5000 µM
"CC[C@H](C)[C@H](NC(=O)[C@H](CCC(=O)O)NC(=O)[C@@H]1CCC(=O)N1)C(=O)N1CCC[C@H]1C(=O)N[C@@H](CC(N)=O)C(=O)O [<E-E-I-P-N, pyroGlu-Glu-Ile-Pro-Asn-COOH] ([pGlu]EIPN-OH)",Ki,[3]; no effect,> 5000 µM
same,effect of the pentapeptide on p45 metalloprotease activity,[10],not an inhibitor of p45 metalloprotease activity
same,Ki,[4],> 5000 µM
B1,hydrolysis of FTC-casein at pH 9,[11],16
same,pH at which the protease functions optimally,[12],~9.5
same,Tryptic Activity,"[13]; with 1,10-phenanthroline (1 mM), without Zn2+",33.8 Δ Abs/min × 10^-4
same,Tryptic Activity,"[13]; with inhibitor (1,10-phenanthroline) addition",33.8×10^-4 ΔAbs/min
same,Tryptic Activity,"[13]; without 1,10-phenanthroline, without Zn2+",34.0 Δ Abs/min × 10^-4
same,Tryptic Activity,[13]; without inhibitor addition,34.0×10^-4 ΔAbs/min
B2,Ki,[14],> 5000 µM
